Measured values published in ChEMBL document CHEMBL1153834, “Orally administered combined regimens for treatment of Mycobacterium ulcerans infection in mice” (2007).
Values after ≈ are worked out from the molar mass of the structure shown. Active and inactive are the calls of the source. The calls are words filed in the database; no cut-off is given here.

Columns and labels:
Mycobacterium ulcerans [1] = assay: Antimycobacterial activity against Mycobacterium ulcerans isolate CU001 infected in BALB/c mouse left hind foot-pad assessed as bacterial load per culture-positive foot-pad at 100 mg/kg, po administered for 5 days per week measured after 4 weeks; type: functional
Mycobacterium ulcerans [2] = assay: Antimycobacterial activity against Mycobacterium ulcerans isolate CU001; type: functional
Mycobacterium ulcerans [3] = assay: Antimycobacterial activity against Mycobacterium ulcerans isolate CU001 infected in BALB/c mouse left hind foot-pad assessed as bacterial load at 100 mg/kg, po administered for 5 days per week measured after 8 weeks; type: functional
Mycobacterium ulcerans [4] = assay: Antimycobacterial activity against Mycobacterium ulcerans isolate CU001 infected in BALB/c mouse left hind foot-pad assessed as incidence of bacterial infection at 100 mg/kg, po administered for 5 days per week measured after 8 weeks; type: functional, organism-based; parameters: dose 100 mg/kg
Mycobacterium ulcerans [5] = assay: Antimycobacterial activity against Mycobacterium ulcerans isolate CU001 infected in BALB/c mouse left hind foot-pad assessed as bacterial load at 100 mg/kg, po administered for 5 days per week measured after 4 weeks; type: functional
Mycobacterium ulcerans [6] = assay: Antimycobacterial activity against Mycobacterium ulcerans isolate CU001 infected in BALB/c mouse left hind foot-pad assessed as bacterial load per culture-positive foot-pad at 10 mg/kg, po administered for 5 days per week measured after 8 weeks; type: functional
Mycobacterium ulcerans [7] = assay: Antimycobacterial activity against Mycobacterium ulcerans isolate CU001 infected in BALB/c mouse left hind foot-pad assessed as bacterial load per culture-positive foot-pad at 10 mg/kg, po administered for 5 days per week measured after 4 weeks; type: functional
Mycobacterium ulcerans [8] = assay: Antimycobacterial activity against Mycobacterium ulcerans isolate CU001 infected in BALB/c mouse left hind foot-pad assessed as incidence of bacterial infection at 10 mg/kg, po administered for 5 days per week measured after 8 weeks; type: functional, organism-based; parameters: dose 10 mg/kg
Mycobacterium ulcerans [9] = assay: Antimycobacterial activity against Mycobacterium ulcerans isolate CU001 infected in BALB/c mouse left hind foot-pad assessed as bacterial load at 10 mg/kg, po administered for 5 days per week measured after 4 weeks; type: functional
Mycobacterium ulcerans [10] = assay: Antimycobacterial activity against Mycobacterium ulcerans isolate CU001 infected in BALB/c mouse left hind foot-pad assessed as bacterial load at 10 mg/kg, po administered for 5 days per week measured after 8 weeks; type: functional, organism-based; parameters: dose 10 mg/kg

`CC[C@H]1OC(=O)[C@H](C)[C@@H](O[C@H]2C[C@@](C)(OC)[C@@H](O)[C@H](C)O2)[C@H](C)[C@@H](O[C@@H]2O[C@H](C)C[C@H](N(C)C)[C@H]2O)[C@](C)(OC)C[C@@H](C)C(=O)[C@H](C)[C@@H](O)[C@]1(C)O` [CLARITHROMYCIN] gave a log10cfu (Mycobacterium ulcerans [1]) of 3.43, an MIC (Mycobacterium ulcerans [2]) of 0.5 µg/mL (≈ 0.668 µM) and a log10cfu (Mycobacterium ulcerans [3]) of 1.25. The Activity (Mycobacterium ulcerans [4]) was “Active” and the log10cfu (Mycobacterium ulcerans [5]) was 2.53.

`COc1c(N2C[C@@H]3CCCN[C@@H]3C2)c(F)cc2c(=O)c(C(=O)O)cn(C3CC3)c12` [MOXIFLOXACIN] showed a log10cfu (Mycobacterium ulcerans [1]) of 3.23, a log10cfu (Mycobacterium ulcerans [6]) of 1.72 and an MIC (Mycobacterium ulcerans [2]) of 0.25 µg/mL (≈ 0.623 µM). It also gave a log10cfu (Mycobacterium ulcerans [3]) of 1.25 and a log10cfu (Mycobacterium ulcerans [5]) of 2.99.

For `CO[C@H]1/C=C/O[C@@]2(C)Oc3c(C)c(O)c4c(O)c(c(/C=N/N5CCN(C)CC5)c(O)c4c3C2=O)NC(=O)/C(C)=C\C=C\[C@H](C)[C@H](O)[C@@H](C)[C@@H](O)[C@@H](C)[C@H](OC(C)=O)[C@@H]1C` [RIFAMPIN], the log10cfu (Mycobacterium ulcerans [7]) was 1.52, the Activity (Mycobacterium ulcerans [8]) was “Active” and the log10cfu (Mycobacterium ulcerans [9]) was 0.46. For the same molecule, the MIC (Mycobacterium ulcerans [2]) was 2 µg/mL (≈ 2.43 µM) and the Activity (Mycobacterium ulcerans [10]) was “Active”.

In the case of `CN[C@@H]1[C@H](O[C@H]2[C@H](O[C@H]3[C@H](O)[C@@H](O)[C@H](N=C(N)N)[C@@H](O)[C@@H]3N=C(N)N)O[C@@H](C)[C@]2(O)C=O)O[C@@H](CO)[C@H](O)[C@H]1O` [STREPTOMYCIN], the MIC (Mycobacterium ulcerans [2]) was 0.5 µg/mL (≈ 0.86 µM).
